In patent US8362203B2, “Non-natural peptides as models for the development of antibiotics” (priority 2009, dated 2013):
Marks after values point to notes of the source that are not given here. Strand notation (5' to 3'): a small letter for the sugar, then the base; units joined by * are phosphorothioate-linked, units joined directly phosphodiester-linked; [ ] holds rarer units or linkages, { } end groups; capitals alone tell only the bases. [m2G] = N2-methylguanosine (ribo); [5mC] = 5-methylcytosine; r = 2'-OH (RNA)

Test: UV thermal melting of helix 31 RNA hairpin constructs (van't Hoff analysis)
Type: physicochemical
Conditions: for ΔG° 50: standard error est. 3% (±0.2 kcal/mol)
Experimental: Thermal melting studies. The absorbance versus temperature profiles were obtained on an Aviv 14DS UV-vis spectrophotometer with a five-cuvette thermoelectric controller. Microcuvettes with two different pathlengths, 0.1 and 0.2 cm (60 and 120 μL volumes, respectively), were employed. Each set of measurements was done in triplicate. The buffer used in each experiment contained 15 mM NaCl, 20 mM sodium cacodylate, and 0.5 mM Na2EDTA (pH 7.0) unless otherwise noted. Each oligomer was dissolved in a specific volume to yield an absorbance reading just below 2.0 in a 0.1 cm pathlength cuvette. The RNA concentrations were determined from the absorbance values (260 nm) at 95° C. The absorbance data were collected at […] from 0 to 95° C. with a constant heating rate of 0.5° C./min. Thermodynamic parameters were obtained from the absorbance versus temperature profiles using the MELTWIN v. 3.5 melting curve program.^1 This program performs a van't Hoff analysis, assuming a two-state model for the transition between a native and a denatured (random coil) structure of a hairpin.
Absorbance versus temperature profiles (melting curves) were obtained at pH 7.0 for all four RNA constructs. They were analyzed in terms of ΔG°37, ΔG°50, ΔH°, ΔS°, and melting temperature (Tm),^1, 2 Representative normalized UV melting curves of the modified RNAs compared to the unmodified RNA, taken in 15 mM NaCl, 20 mM sodium cacodylate, 0.5 mM Na2EDTA (pH 7.0), are shown in FIG. 11.
The curves represent an average of five sets of data at different concentrations of RNA obtained from a five-cuvette thermoelectric controller. The melting curves for the unmodified RNA (ECh31UNMOD, blue line in panels A-C) are compared to those for the modified RNAs (pink lines: (A) ECh31WT, (B) ECh31M2G, and (C) ECh31M5C). All of the melting curves were normalized at 95° C. and absorbance measurements were taken at 260 nm (see materials and methods, section 4.5).
The melting curves are biphasic for all four RNAs (FIG. 12) with transitions at 0 to 35° C. and 40 to 80° C. […] The higher melting transitions were concentration independent, consistent with unimolecular unfolding of the hairpin structure.^3 The corresponding thermodynamic parameters for the four RNAs are given in Table 2. […] The observed order of stability of the RNAs is ECh31UNMOD>ECh31M2G>ECh31M5C>ECh31WT^a A conservative estimate of the standard error for ΔG°50 is 3% (.+−.0.2 kcal/mol)^4
The RNA samples were analyzed as five different dilutions per experiment and UV melts were also performed in triplicate for each construct. AU0-AU4 represent profiles corresponding to different dilutions of each RNA taken in 15 mM NaCl, 20 mM sodium cacodylate, 0.5 mM Na2EDTA at pH 7.0. Experiments in K^+ buffer (15 mM KCl, 20 mM cacodylic acid, 20 mM Tris [basic form], 0.5 mM Na2EDTA, pH 7.0) gave similar results (Table 3, FIG. 13).
Thermal melting studies. Preliminary experiments were performed with the unmodified human analogue (HSh31UNMOD) containing an additional G-C base-pair (denoted by g-c) similar to that of the ECh31UNMOD construct (FIG. 28).
Thermal melting studies on the human unmodified helix 31 containing the altered sequence. The absorbance versus temperature profiles were obtained at pH 7.0 in low salt conditions (35 mM Na^+) for the new analogue of helix 31 (HSh31ECstem) and analyzed in terms of the melting temperature (Tm), Δ°, ΔS° and ΔG°37. The melting curve for HSH31ECSTEM (green color curve) is biphasic with transitions at 0-35 and 45-80° C. (FIG. 37). The higher melting transition is concentration independent, consistent with unimolecular unfolding of a hairpin structure.

[1] = 15 mM NaCl, 20 mM sodium cacodylate, 0.5 mM Na2EDTA, pH 7.0
[2] = Table 2, 15 mM NaCl, 20 mM sodium cacodylate, 0.5 mM Na2EDTA, pH 7.0
[3] = Tables 3-5, NaCl buffer (15 mM NaCl, 20 mM sodium cacodylate, 0.5 mM EDTA, pH 7.0)
[4] = KCl buffer (15 mM KCl, 20 mM cacodylic acid, 20 mM Tris, 0.5 mM Na2EDTA, pH 7.0)

| Substance | ΔG° 50 [1] | Tm [2] [°C] | ΔG°37 [2] [kcal/mol] | ΔH° [2] [kcal/mol] | ΔS° [2] [cal/K · mol] | Tm [3] [°C] | ΔG°37 [3] [kcal/mol] | ΔH° [3] [kcal/mol] | ΔS° [3] [cal/K · mol] | Tm [4] [°C] | ΔG°37 [4] [kcal/mol] | ΔH° [4] [kcal/mol] | ΔS° [4] [cal/K · mol] |
| --- | --- | --- | --- | --- | --- | --- | --- | --- | --- | --- | --- | --- | --- |
| ECh31M2G: 18-nt helix 31 RNA hairpin of E. coli 16S rRNA with m2G966 (rGrUrUrCrGrArUr[m2G]rCrArArCrGrCrGrArArC) | −0.7^a kcal/mol | 56 | -2.4 ± 0.1 | -41.9 ± 1.1 | −127.5 ± 3.2 |  |  |  |  |  |  |  |  |
| ECh31M5C: 18-nt helix 31 RNA hairpin of E. coli 16S rRNA with m5C967 (GUUCGAUGCAACGCGAAC; RNA, [5mC] at 9, all phosphodiester, methylation of C not given here) | −0.6^a kcal/mol | 55 | -2.2 ± 0.1 | -40.5 ± 0.9 | −123.3 ± 3.1 |  |  |  |  |  |  |  |  |
| ECh31UNMOD: 18-nt unmodified RNA hairpin representing helix 31 (U960-A975) of E. coli 16S rRNA (GUUCGAUGCAACGCGAAC; unmodified RNA) | −0.9^a kcal/mol | 57 | -2.6 ± 0.1 | -44.1 ± 1.0 | −133.8 ± 3.0 | 57 | -2.6 ± 0.1 | -44.1 ± 1.0 | −133.8 ± 3.0 |  |  |  |  |
| ECh31WT: doubly modified (m2G966, m5C967) h31 analogue, wild-type sequence of E. coli 16S rRNA helix 31 (GUUCGAUGCAACGCGAAC; RNA, [m2G] at 8, [5mC] at 9, all phosphodiester, methylation of C not given here) | −0.5^a kcal/mol | 56 | -2.1 ± 0.1 | -37.5 ± 2.2 | −114.4 ± 5.8 | 55.5 | -2.10 ± 0.07 | -37.26 ± 1.2 | −113.37 ± 3.6 | 54.7 | -2.13 ± 0.03 | -39.37 ± 1.2 | −120.08 ± 3.8 |
| HSh31UNMOD: unmodified human helix 31 RNA analogue with additional G-C base-pair (GUUUGACUCAACACGGGC; unmodified RNA) |  |  |  |  |  | 44 | -0.6 | -29.4 ± 1.6 | −92.8 ± 5.4 |  |  |  |  |
